This note sets out measurements from US20260125400A1, “TYK2 DEGRADERS AND USES THEREOF” (Kymera Therapeutics, Inc., priority 2023, published 2026).

The experiment concerns the target T1, TYK2 (Homo sapiens, UniProt P29597).
T1 construct: Degradation of TYK2 in cells was quantitatively measured using Meso Scale Discovery (MSD) technology; endogenous in cells; host or cells: OCI-LY10
Kind of experiment: TYK2 MSD degradation in OCI-LY10 cells. Type of experiment: cell-based. As to conditions: TYK2 degradation in OCI-LY10 cells, 4 to 24 hours incubation; for DC50: read-out: TYK2 MSD OCI-LY10 Rel-DC50. The method in brief:
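Cellular TYK2 levels were measured by Meso Scale Discovery sandwich detection in RIPA lysates of OCI-LY10 cells exposed 4 to 24 hours at 37° C to nine 1:3 compound doses starting at 1 to 10 μM final; dose-response fitted by four-parameter regression.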

T1 sequence (P29597 whole entry): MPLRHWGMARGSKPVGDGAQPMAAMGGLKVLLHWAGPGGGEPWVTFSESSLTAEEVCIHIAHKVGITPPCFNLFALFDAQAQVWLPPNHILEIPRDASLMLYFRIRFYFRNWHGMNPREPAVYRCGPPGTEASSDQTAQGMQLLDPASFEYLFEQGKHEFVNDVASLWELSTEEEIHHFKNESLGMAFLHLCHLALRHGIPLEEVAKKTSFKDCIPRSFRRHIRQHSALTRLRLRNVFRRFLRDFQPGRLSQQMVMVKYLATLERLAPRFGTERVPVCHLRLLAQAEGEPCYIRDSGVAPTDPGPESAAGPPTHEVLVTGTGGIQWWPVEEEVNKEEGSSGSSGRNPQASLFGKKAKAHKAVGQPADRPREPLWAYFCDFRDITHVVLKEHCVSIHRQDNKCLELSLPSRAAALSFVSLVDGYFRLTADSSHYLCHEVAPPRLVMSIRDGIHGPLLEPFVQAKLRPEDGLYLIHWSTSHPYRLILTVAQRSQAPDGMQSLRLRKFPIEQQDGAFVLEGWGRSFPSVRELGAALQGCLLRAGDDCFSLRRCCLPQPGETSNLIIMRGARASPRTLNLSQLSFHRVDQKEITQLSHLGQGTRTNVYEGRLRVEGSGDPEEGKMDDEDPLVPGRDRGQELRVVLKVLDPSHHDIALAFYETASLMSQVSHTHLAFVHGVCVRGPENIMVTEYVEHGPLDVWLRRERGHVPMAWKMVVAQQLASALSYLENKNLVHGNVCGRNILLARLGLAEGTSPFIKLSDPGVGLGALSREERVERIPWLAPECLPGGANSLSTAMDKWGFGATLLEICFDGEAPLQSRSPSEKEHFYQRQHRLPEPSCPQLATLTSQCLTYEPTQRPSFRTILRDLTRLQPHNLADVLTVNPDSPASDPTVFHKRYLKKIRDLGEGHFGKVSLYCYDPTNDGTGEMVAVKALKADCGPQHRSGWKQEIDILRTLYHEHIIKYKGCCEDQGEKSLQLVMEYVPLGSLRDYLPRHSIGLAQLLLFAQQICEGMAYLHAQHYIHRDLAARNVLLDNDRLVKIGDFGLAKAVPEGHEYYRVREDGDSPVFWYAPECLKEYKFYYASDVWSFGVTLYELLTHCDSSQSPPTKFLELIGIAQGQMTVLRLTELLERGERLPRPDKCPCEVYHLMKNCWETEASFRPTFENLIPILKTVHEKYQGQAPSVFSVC

`CNc1cc(N2CCc3c(-c4ccc(CN5CCC6(C5)CN(C(=O)c5ccc(Cl)c(N7CCC(=O)NC7=O)c5)C6)cn4)cccc32)nn2c(C(=O)NC3CC3F)cnc12` (stereo not shown) [I-297]: the “TYK2 MSD OCI-LY10 Dmax %” value is listed as “C (C (75 to 50%))” and the DC50 (commonly the concentration at which degradation of the target reaches its halfway point) was below 0.01 µM.

Consider `CNc1cc(N2CCc3c(-c4ccc(CN5CCC6(CCN(C(=O)c7ccc(Cl)c(N8CCC(=O)NC8=O)c7)C6)C5)cn4)cccc32)nn2c(C(=O)NC3CC3F)cnc12` (stereo not shown) [I-302], for which the “TYK2 MSD OCI-LY10 Dmax %” value is listed as “C (C (75 to 50%))” and the DC50 was below 0.001 µM.

On to `CNc1cc(N2CCc3c(-c4ccc(CN5CC6(CCN(C(=O)c7cccc(N8CCC(=O)NC8=O)c7C)CC6)C5)cn4)cccc32)nn2c(C(=O)NC3CC3F)cnc12` (stereo not shown) [I-309], for which the “TYK2 MSD OCI-LY10 Dmax %” value is “D (D (<50%))” and the 50% degradation concentration (DC50) was above 0.1 µM.

Regarding `CNc1cc(N2CCc3c(-c4ccc(CN5CCN(CC#Cc6cccc(N7CCC(=O)NC7=O)c6C)CC5)cn4)cccc32)nn2c(C(=O)NC3CC3F)cnc12` (stereo not shown) [I-311], the “TYK2 MSD OCI-LY10 Dmax %” value is “C (C (75 to 50%))” and the half-maximal degradation concentration (DC50) is above 0.1 µM.

As to `CNc1cc(N2CCc3c(-c4ccc(CN5CCC6(CCC(COc7ccc(N8CCC(=O)NC8=O)c(Cl)c7)CC6)CC5)cn4)cccc32)nn2c(C(=O)N[C@@H]3C[C@@H]3F)cnc12` [I-339], the “TYK2 MSD OCI-LY10 Dmax %” value is reported as “D (D (<50%))” and the 50% degradation concentration (DC50) is below 0.01 µM.

In the case of `CNc1cc(N2CCc3c(CN4CCC(N5CCC(N6CCN(c7ccc8c(c7)n(C)c(=O)n8C7CCC(=O)NC7=O)CC6)CC5)C(F)(F)C4)cccc32)nn2c(C(=O)N[C@@H]3C[C@@H]3F)cnc12` (stereo partly shown) [I-347], the “TYK2 MSD OCI-LY10 Dmax %” value was “B (B (90 to >75%))” and the half-maximal degradation concentration (DC50) is below 0.001 µM.

Regarding `CNc1cc(N2CCc3c(-c4ccc(CN5CC6(CCN(C(=O)c7cnc(C)c(N8CCC(=O)NC8=O)c7)CC6)C5)cn4)cccc32)nn2c(C(=O)N[C@@H]3C[C@@H]3F)cnc12` [I-351], the “TYK2 MSD OCI-LY10 Dmax %” value was “B (B (90 to >75%))” and the DC50 is below 0.001 µM.

Regarding `CNc1cc(N2CCc3c(-c4ccc(CN5CC6(CCN(C(=O)c7cnc(OC)c(N8CCC(=O)NC8=O)c7)CC6)C5)cn4)cccc32)nn2c(C(=O)N[C@@H]3C[C@@H]3F)cnc12` [I-352], the “TYK2 MSD OCI-LY10 Dmax %” value is “B (B (90 to >75%))” and the DC50 is below 0.001 µM.

Take `CNc1cc(N2CCc3c(-c4ccc(CN5CC6(CCN(C(=O)c7cncc(N8CCC(=O)NC8=O)c7)CC6)C5)cn4)cccc32)nn2c(C(=O)N[C@@H]3C[C@@H]3F)cnc12` [I-353]: the “TYK2 MSD OCI-LY10 Dmax %” value is on record as “D (D (<50%))” and the DC50 is above 0.1 µM.

Take `CNc1cc(N2CCc3c(-c4ccc(CN5CC6(CCN(C(=O)c7ccc(C)c(N8CCC(=O)NC8=O)c7)CC6(F)F)C5)cn4)cc(F)cc32)nn2c(C(=O)NC3CC3F)cnc12` (stereo not shown) [I-357]: the “TYK2 MSD OCI-LY10 Dmax %” value is on record as “A (A (>90%))” and the DC50 was below 0.001 µM.

As for `CNc1cc(N2CCc3c(-c4ccc(CC5CN(C6CCN(C7CCN(c8ccc9c(c8)n(C)c(=O)n9C8CCC(=O)NC8=O)CC7)CC6(F)F)C5)cn4)cccc32)nn2c(C(=O)N[C@@H]3C[C@@H]3F)cnc12` (stereo partly shown) [I-359], the “TYK2 MSD OCI-LY10 Dmax %” value was “B (B (90 to >75%))” and the DC50 is below 0.001 µM.

For the compound `CNc1cc(N2CCc3c(-c4ccc(CN5CCC(N6CCC(C7CCN(c8ccc9c(c8)n(C)c(=O)n9C8CCC(=O)NC8=O)CC7)CC6)C(F)(F)C5)cn4)cccc32)nn2c(C(=O)N[C@@H]3C[C@@H]3F)cnc12` (stereo partly shown) [I-360], the “TYK2 MSD OCI-LY10 Dmax %” value is “B (B (90 to >75%))” and the half-maximal degradation concentration (DC50) is below 0.01 µM.

With `CNc1cc(N2CCc3c(CN4CCC(N5CCC6(CCN(C(=O)c7ccc(Cl)c(N8CCC(=O)NC8=O)c7)CC6)CC5)C(F)(F)C4)cccc32)nn2c(C(=O)N[C@@H]3C[C@@H]3F)cnc12` (stereo partly shown) [I-361], the “TYK2 MSD OCI-LY10 Dmax %” value is listed as “B (B (90 to >75%))” and the DC50 is below 0.001 µM.

Turning to `CNc1cc(N2CCc3c(-c4ccc(OC5CCC6(CC5)CCN(Cc5ccc(Cl)c(N7CCC(=O)NC7=O)c5)CC6)cn4)cccc32)nn2c(C(=O)N[C@@H]3C[C@@H]3F)cnc12` [I-362], the “TYK2 MSD OCI-LY10 Dmax %” value was “D (D (<50%))” and the DC50 is above 0.1 µM.

For the compound `CNc1cc(N2CCc3c(-c4ccc(CN5CCC6(CCN(Cc7ccc(Cl)c(N8CCC(=O)NC8=O)c7)CC6)C(F)(F)C5)cn4)cccc32)nn2c(C(=O)NC3CC3)cnc12` [I-363], the “TYK2 MSD OCI-LY10 Dmax %” value is “D (D (<50%))” and the 50% degradation concentration (DC50) was above 0.1 µM.

With `CNc1cc(N2CCc3c(-c4ccc(CN5CC6(CCN(Cc7ccc(Cl)c(C8CCC(=O)NC8=O)c7)CC6(F)F)C5)cn4)cccc32)nn2c(C(=O)N[C@@H]3C[C@@H]3F)cnc12` (stereo partly shown) [I-365], the “TYK2 MSD OCI-LY10 Dmax %” value was “C (C (75 to 50%))” and the half-maximal degradation concentration (DC50) was below 0.01 µM.

As to `CNc1cc(N2CCc3c(-c4ccc(CN5CC6(CCN(Cc7ccc(C)c(N8CCC(=O)NC8=O)c7)CC6(F)F)C5)cn4)cccc32)nn2c(C(=O)N[C@@H]3C[C@@H]3F)cnc12` [I-366], the “TYK2 MSD OCI-LY10 Dmax %” value was “D (D (<50%))” and the DC50 was below 0.01 µM.

On to `CNc1cc(N2CCc3c(-c4ccc(CN5CC6(CCN(Cc7ccc(OC)c(N8CCC(=O)NC8=O)c7)CC6(F)F)C5)cn4)cccc32)nn2c(C(=O)N[C@@H]3C[C@@H]3F)cnc12` [I-367], for which the “TYK2 MSD OCI-LY10 Dmax %” value is on record as “C (C (75 to 50%))” and the DC50 is below 0.01 µM.

For the compound `CNc1cc(N2CCc3c(CN4CCC(N5CCC(CC#Cc6ccc7c(c6)n(C)c(=O)n7C6CCC(=O)NC6=O)CC5)C(F)(F)C4)cccc32)nn2c(C(=O)N[C@@H]3C[C@@H]3F)cnc12` (stereo partly shown) [I-368], the “TYK2 MSD OCI-LY10 Dmax %” value was “D (D (<50%))” and the DC50 is above 0.1 µM.

Regarding `CNc1cc(N2CCc3c(-c4ccc(CN5CC6(CCN(Cc7ccc(Cl)c(N8CCC(=O)NC8=O)c7)CC6(F)F)C5)cn4)cccc32)nn2c(C(=O)N[C@@H]3C[C@@H]3F)cnc12` [I-369], the “TYK2 MSD OCI-LY10 Dmax %” value is listed as “D (D (<50%))” and the 50% degradation concentration (DC50) is above 0.1 µM.

Turning to `CNc1cc(N2CCc3c(C#CCN4CCC5(CN(C(=O)c6ccc(Cl)c(N7CCC(=O)NC7=O)c6)C5)C(F)(F)C4)cccc32)nn2c(C(=O)N[C@@H]3C[C@@H]3F)cnc12` [I-370], the “TYK2 MSD OCI-LY10 Dmax %” value is “D (D (<50%))” and the DC50 was above 0.1 µM.

As for `CNc1cc(N2CCc3c(-c4ccc(CN5CCC(N6CCC7(CCN(c8ccc9c(c8)n(C)c(=O)n9C8CCC(=O)NC8=O)CC7)CC6)C(F)(F)C5)cn4)cccc32)nn2c(C(=O)N[C@@H]3C[C@@H]3F)cnc12` (stereo partly shown) [I-371], the “TYK2 MSD OCI-LY10 Dmax %” value is on record as “C (C (75 to 50%))” and the DC50 was below 0.01 µM.

On to `CNc1cc(N2CCc3c(CN4CCC(N5CCC(OCC#Cc6cccc7c6n(C)c(=O)n7C6CCC(=O)NC6=O)CC5)C(F)(F)C4)cccc32)nn2c(C(=O)N[C@@H]3C[C@@H]3F)cnc12` (stereo partly shown) [I-372], for which the “TYK2 MSD OCI-LY10 Dmax %” value was “D (D (<50%))” and the DC50 was below 0.01 µM.

As for `CNc1cc(N2CCc3c(-c4ccc(CN5CCN(Cc6ccc(C7CCC(=O)NC7=O)c(Cl)c6)CC5)cn4)cccc32)nn2c(C(=O)N[C@@H]3C[C@@H]3F)cnc12` (stereo partly shown) [I-374], the “TYK2 MSD OCI-LY10 Dmax %” value is reported as “D (D (<50%))” and the 50% degradation concentration (DC50) was below 0.01 µM.

For `CNc1cc(N2CCc3c(-c4ccc(CN5CCC(Oc6ccc(C7CCC(=O)NC7=O)c(Cl)c6)CC5)cn4)cccc32)nn2c(C(=O)N[C@@H]3C[C@@H]3F)cnc12` (stereo partly shown) [I-387], the “TYK2 MSD OCI-LY10 Dmax %” value is recorded as “B (B (90 to >75%))” and the DC50 lay in the range of 0.01 to 0.1 µM.

With `CNc1cc(N2CCc3c(-c4ccc(CN5CCN(Cc6ccc(NC7CCC(=O)NC7=O)c(Cl)c6)CC5)cn4)cccc32)nn2c(C(=O)N[C@@H]3C[C@@H]3F)cnc12` (stereo partly shown) [I-389], the “TYK2 MSD OCI-LY10 Dmax %” value is on record as “C (C (75 to 50%))” and the 50% degradation concentration (DC50) is below 0.01 µM.
